Assay results taken from patent US9353415B2, “Methods for functional analysis of high-throughput experimental data and gene groups identified therefrom” (Thomson Reuters (Scientific) LLC, priority 2006, dated 2016).

Test system: CREB pathway
Experiment: microarray gene expression from the livers of rats exposed to drugs, mapped on pathway maps (signature networks method)
Type: in vivo
Conditions: rat liver, treated vs untreated, custom cDNA two-channel arrays, five repeats; no threshold for fold change and P-values; FIG. 16C
Procedure: This dataset contains microarray gene expression from the livers of rats exposed to three drugs: phenobarbital, mestranol, and tamoxifen. The data were produced by custom cDNA two-channel arrays. Five biological repeats were performed for each treatment and a set of five samples from the untreated animals were analyzed.
A pre-computed comprehensive set of overlapping canonical pathways derived from 450 signaling and metabolic pathway maps manually created using a general database, MetaCore™ was obtained. These pathways then were used as a framework for mapping experimental datasets as well as to calculate the network modules most relevant to specific pathways (FIG. 15). The maps feature approximately 3,000 proteins and over 2,000 overlapping human pathways. On these maps, typical signaling inputs (indicated by block arrows) are identified. The network modules were then generated as chains of interactions/reactions initiated at one of the signaling inputs and followed down to the last protein identified in the canonical pathway; such termini often are transcription factors and their targets. These pathways represent linear modules of cell signaling, usually parts of signaling cascades between secondary messengers and transcription factors. […]
FIG. 16C is the top scored CREB pathway map for the genes content of the network A. Gene expression was mapped without thresholds. […]

## CC/C(=C(\c1ccccc1)c1ccc(OCCN(C)C)cc1)c1ccccc1 [tamoxifen]
  direction of expression (fold change) of genes on the highest scored pathway map, CREB pathway: down-regulated
